Source: US10517889B2, “Modulators of SMAD7 expression” (Ionis Pharmaceuticals, Inc., priority 2017, dated 2019)
Strand notation (5' to 3'): a small letter for the sugar, then the base; units joined by * are phosphorothioate-linked, units joined directly phosphodiester-linked; [ ] holds rarer units or linkages, { } end groups; capitals alone tell only the bases. k = constrained ethyl (cEt); [5mC] = 5-methylcytosine; d = 2'-deoxy (DNA)

What was measured:
human SMAD7 mRNA [1] = test: Antisense inhibition of human SMAD7 mRNA expression in Hep3B cells by 3-10-3 cEt gapmers, 10,000 nM, electroporation (Example 2); type: cell-based; conditions: approximately 24 hours
In short: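 Percent inhibition of SMAD7 mRNA, relative to untreated cells, after ~24 h exposure of electroporated Hep3B cells to 10,000 nM cEt gapmer; levels by qRT-PCR, corrected for total RNA.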

human SMAD7 mRNA [2] = test: Dose-dependent inhibition of human SMAD7 mRNA expression in Hep3B cells (Example 3, Study 1 and 2); type: cell-based; conditions: electroporation; for % inhibition of SMAD7 mRNA expression: approximately 16 hours; for IC50: Study 2 (740-20000 nM)
Experimental: The antisense oligonucleotides were tested in a series of experiments that had similar culture conditions as described below.
(§1) Cells were plated at a density of 20,000 cells per well and transfected using electroporation with 0.31 μM, 1.25 μM, 5.00 μM, or 20.00 μM concentrations of antisense oligonucleotide, as specified in the Tables below. ION 483663 was included in the assays for comparison. After a treatment period of approximately 16 hours, RNA was isolated from the cells and SMAD7 mRNA levels were measured by quantitative real-time PCR. Primer probe set RTS5062 was used to measure human SMAD7 mRNA levels. SMAD7 mRNA levels were adjusted according to total RNA content, as measured by RIBOGREEN®. Results are presented as percent inhibition of SMAD7 mRNA expression, relative to untreated control cells.
The half maximal inhibitory concentration (IC50) of each oligonucleotide is also presented.
as §1, with “0.74” for “0.31”, “2.22” for “1.25”, “6.67” for “5.00”, “below.” for “below. ION 483663 was included in the assays for comparison.”

[3] = Hep3B cells, electroporation with 10,000 nM antisense oligonucleotide, SMAD7 mRNA by RT-PCR (RTS5062), relative to untreated control cells
[4] = 740 nM, Study 2, relative to untreated control cells
[5] = Hep3B cells, 10,000 nM antisense oligonucleotide, electroporation, RT-PCR primer probe set RTS5062, relative to untreated control cells
[6] = SMAD7 mRNA, Hep3B cells, 10,000 nM antisense oligonucleotide, electroporation, primer probe set RTS5062, relative to untreated control cells
[7] = Hep3B cells, electroporation with 10,000 nM antisense oligonucleotide, primer probe set RTS5062, relative to untreated control cells

Row | Substance | % Inhibition (human SMAD7 mRNA [1]; [3]) | % inhibition of SMAD7 mRNA expression (human SMAD7 mRNA [2]; [4]) | % inhibition of SMAD7 mRNA expression (human SMAD7 mRNA [2]; 2220 nM, Study 2) | % inhibition of SMAD7 mRNA expression (human SMAD7 mRNA [2]; 6670.0 nM, Study 2) | % inhibition of SMAD7 mRNA expression (human SMAD7 mRNA [2]; 20000.0 nM, Study 2) | IC50 (human SMAD7 mRNA [2]) | % Inhibition (human SMAD7 mRNA [1]; [5]) | % Inhibition (human SMAD7 mRNA [1]; SMAD7 mRNA, Hep3B cells, electroporation with 10,000 nM antisense oligonucleotide, primer probe set RTS5062, relative to untreated control cells) | % Inhibition (human SMAD7 mRNA [1]; [6]) | % inhibition of SMAD7 mRNA expression (human SMAD7 mRNA [1]; [7]) | % Inhibition (human SMAD7 mRNA [1]; Hep3B cells, electroporation with 10,000 nM antisense oligonucleotide, RTS5062, percent inhibition of SMAD7 mRNA relative to untreated control cells)
1 | 830044 (k[5mC]*kG*kA*dT*dT*dG*dG*d[5mC]*dA*dG*dG*dT*dT*kA*kA*kT; antisense) [compound 830044] | 60% | 47% | 61% | 80% | 93% | 10 µM | – | – | – | – | –
2 | 798823 (kA*k[5mC]*kA*dG*dT*dA*dG*dA*dG*d[5mC]*d[5mC]*dT*d[5mC]*k[5mC]*k[5mC]*k[5mC]; antisense) [compound 798823] | – | 27% | 27% | 63% | 70% | > 20 µM | 74% | – | – | – | –
3 | 829995 (kT*kG*kG*dA*dG*dG*d[5mC]*dA*dG*dG*dG*d[5mC]*d[5mC]*kG*k[5mC]*kG; antisense) [compound 829995] | – | 36% | 74% | 76% | 84% | 8 µM | – | 78% | – | – | –
4 | 790732 (kG*k[5mC]*kT*dT*dA*dT*dT*dT*d[5mC]*dA*dT*dG*dT*kG*kG*kT; antisense) [compound 790732] | – | 70% | 78% | 88% | 93% | 2 µM | – | – | 69% | – | –
5 | 830051 (kT*kA*kG*dT*dT*dT*d[5mC]*d[5mC]*dG*dA*dT*dT*dG*kG*k[5mC]*kA; antisense) [compound 830051] | 84% | 0% | 18% | 42% | 67% | 2 µM | – | – | – | – | –
6 | 798662 (kG*k[5mC]*kT*d[5mC]*d[5mC]*dG*dG*d[5mC]*dT*dG*d[5mC]*d[5mC]*d[5mC]*k[5mC]*kA*k[5mC]; antisense) [compound 798662] | – | 0% | 28% | 22% | 25% | > 20 µM | – | – | – | 62% | –
7 | 800066 (antisense kT*kG*kT*dT*dT*dT*dA*dA*dG*dT*dA*dG*d[5mC]*kA*kG*k[5mC]) [compound 800066] | 63% | 7% | 42% | 62% | 82% | 9 µM | – | – | – | – | –
8 | 799322 (antisense kG*kG*kA*dG*dG*dG*dT*dA*dT*dG*d[5mC]*dA*d[5mC]*kA*k[5mC]*kT) [compound 799322] | – | 89% | 90% | 96% | 96% | 2 µM | – | – | – | 83% | –
9 | 790488 (kT*kT*k[5mC]*d[5mC]*dG*dA*dG*dG*dA*dA*dT*dG*d[5mC]*k[5mC]*kT*kG; antisense) [compound 790488] | – | 12% | 34% | 46% | 67% | 7 µM | – | – | 81% | – | –
10 | 799572 (kA*k[5mC]*k[5mC]*dA*dT*d[5mC]*dT*dA*dA*d[5mC]*dA*dA*d[5mC]*kA*kT*k[5mC]; antisense) [compound 799572] | – | 0% | 35% | 62% | 66% | 1 µM | – | – | 55% | – | 79%
11 | 800010 (kG*kT*kT*dA*dT*dT*dT*dA*dA*dT*dT*dA*d[5mC]*k[5mC]*k[5mC]*kT; antisense) [compound 800010] | – | 33% | 13% | 47% | 59% | 6 µM | 69% | – | – | – | –
